Assay results taken from patent US20250171459A1, “2-METHYL-4',5'-DIHYDROSPIRO[PIPERIDINE-4,7'-THIENO[2,3-C]PYRAN] DERIVATIVES AS INHIBITORS OF APOL1 AND METHODS OF USING SAME” (Vertex Pharmaceuticals Incorporated, priority 2022, published 2025).

Molecular target: T1, APOL1 (Homo sapiens, UniProt O14791)
T1 sequence (O14791 1-398 S342G/I384M): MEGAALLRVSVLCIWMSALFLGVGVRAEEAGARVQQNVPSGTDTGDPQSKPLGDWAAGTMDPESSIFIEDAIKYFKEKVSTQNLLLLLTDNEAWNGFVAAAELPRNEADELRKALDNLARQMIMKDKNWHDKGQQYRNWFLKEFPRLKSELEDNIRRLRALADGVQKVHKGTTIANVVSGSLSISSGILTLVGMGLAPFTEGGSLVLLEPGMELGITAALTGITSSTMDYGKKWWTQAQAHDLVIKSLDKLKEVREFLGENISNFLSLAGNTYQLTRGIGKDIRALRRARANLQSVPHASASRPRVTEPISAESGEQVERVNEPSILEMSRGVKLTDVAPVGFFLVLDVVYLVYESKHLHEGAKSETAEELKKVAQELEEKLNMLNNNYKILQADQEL
Assay: MultiTox-Fluor Multiplex Cytotoxicity Assay in tet-inducible APOL1 T-REx-HEK293 cells (cell rescue, ratio of dead to live cells)
Type: cell-based
Settings: tet-inducible transgenic APOL1 T-REx-HEK293 cell lines, 50 ng/mL tet, 24 hours; read-out: IP50 (i.e., IC50 for cell proliferation)
Method in brief: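 T-REx-HEK293 cells with tet-inducible APOL1 were treated with compound (10 μM top, 10-point 3-fold dilution, duplicate) plus 50 ng/mL tetracycline for 24 h at 37° C, in DMEM with 2% tet-free FBS. MultiTox-Fluor protease signals gave a dead/live ratio, normalized to no tet (100% viability) and tet alone (0%).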

| SMILES | IC50 |
| --- | --- |
| C[C@H]1C[C@@]2(CCN1Cc1cnn(C[C@H](O)C(C)(C)O)c1)OC[C@@H](O)c1cc(C(F)(F)F)sc12 [Compound 889, (2S)-1-[4-[[(2′S,4S,7R)-4-hydroxy-2′-methyl-2-(trifluoromethyl)spiro[4,5-dihydrothieno[2,3-c]pyran-7,4′-piperidine]-1′-yl]methyl]pyrazol-1-yl]-3-methyl-butane-2,3-diol] | < 100 nM |
| C[C@H]1C[C@@]2(CCN1Cc1cnn(C[C@@H](O)C(C)(C)O)c1)OC[C@@H](O)c1cc(C(F)(F)F)sc12 [Compound 890, (2R)-1-[4-[[(2′S,4S,7R)-4-hydroxy-2′-methyl-2-(trifluoromethyl)spiro[4,5-dihydrothieno[2,3-c]pyran-7,4′-piperidine]-1′-yl]methyl]pyrazol-1-yl]-3-methyl-butane-2,3-diol] | < 100 nM |
| CC(C)C(O)Cn1cc(CN2CC[C@]3(C[C@@H]2C)OCCc2c3sc(C(F)(F)F)c2CO)cn1 (stereo partly drawn) [Compound 891, 1-[4-[[(2′S, 7R)-3-(hydroxymethyl)-2′-methyl-2-(trifluoromethyl)spiro[4,5-dihydrothieno[2,3-c]pyran-7,4′-piperidine]-1′-yl]methyl]pyrazol-1-yl]-3-methyl-butan-2-ol] | < 100 nM |
| C[C@H]1C[C@@]2(CCN1Cc1cnn(CC(O)CC(F)(F)F)c1)OCCc1c2sc(C(F)(F)F)c1CO (stereo partly shown) [Compound 892] | < 100 nM |
| C[C@H]1C[C@@]2(CCN1Cc1cnn(CC(O)COCC(F)(F)F)c1)OCCc1c2sc(C(F)(F)F)c1CO (stereo partly shown) [Compound 893] | < 100 nM |
| C[C@H]1C[C@@]2(CCN1Cc1cnn(CC(O)C(F)(F)F)c1)OCCc1c2sc(C(F)(F)F)c1CO (stereo partly shown) [Compound 894] | < 100 nM |
| C[C@H]1C[C@@]2(CCN1Cc1cnn(CC(C)(C)O)c1)OCCc1c2sc(C(F)(F)F)c1CO [Compound 895] | < 100 nM |
| C[C@H]1C[C@@]2(CCN1Cc1cnn(CCC(N)=O)c1)OCCc1c2sc(C(F)(F)F)c1CO [Compound 896, 3-[4-[[(2′S, 7R)-3-(hydroxymethyl)-2′-methyl-2-(trifluoromethyl)spiro[4,5-dihydrothieno[2,3-c]pyran-7,4′-piperidine]-1′-yl]methyl]pyrazol-1-yl]propanamide] | < 100 nM |
| C[C@H]1C[C@@]2(CCN1Cc1cnn(CC(=O)N(C)C)c1)OCCc1c2sc(C(F)(F)F)c1CO [Compound 897] | < 100 nM |
| C[C@H]1C[C@@]2(CCN1Cc1cnn(CCCC(N)=O)c1)OCCc1c2sc(C(F)(F)F)c1CO [Compound 898] | < 100 nM |
| C[C@H]1C[C@@]2(CCN1Cc1cnn(C[C@H](O)CO)c1)OCCc1c2sc(C(F)(F)F)c1CO [Compound 899] | 100 to 500 nM |
| CCNC(=O)CCn1cc(CN2CC[C@]3(C[C@@H]2C)OCCc2c3sc(C(F)(F)F)c2CO)cn1 [Compound 900] | < 100 nM |
| CNC(=O)Cn1cc(CN2CC[C@]3(C[C@@H]2C)OCCc2c3sc(C(F)(F)F)c2CO)cn1 [Compound 901] | < 100 nM |
| C[C@H]1C[C@@]2(CCN1Cc1cnn(Cc3cnccn3)c1)OCCc1c2sc(C(F)(F)F)c1CO [Compound 902] | < 100 nM |
| C[C@H]1C[C@@]2(CCN1Cc1cnn(CC(=O)NC3CC3)c1)OCCc1c2sc(C(F)(F)F)c1CO [Compound 903] | < 100 nM |
| CCN(CC)C(=O)Cn1cc(CN2CC[C@]3(C[C@@H]2C)OCCc2c3sc(C(F)(F)F)c2CO)cn1 [Compound 904] | < 100 nM |
| C[C@H]1C[C@@]2(CCN1Cc1cnn(CC3CCOCC3)c1)OCCc1c2sc(C(F)(F)F)c1CO [Compound 905] | < 100 nM |
| COCCn1cc(CN2CC[C@]3(C[C@@H]2C)OCCc2c3sc(C(F)(F)F)c2CO)cn1 [Compound 906] | < 100 nM |
| C[C@H]1C[C@@]2(CCN1Cc1cnn(C3CS(=O)(=O)C3)c1)OCCc1c2sc(C(F)(F)F)c1CO [Compound 907] | < 100 nM |
| C[C@@H](CO)Cn1cc(CN2CC[C@]3(C[C@@H]2C)OCCc2c3sc(C(F)(F)F)c2CO)cn1 [Compound 908] | < 100 nM |
| CC(C)NC(=O)Cn1cc(CN2CC[C@]3(C[C@@H]2C)OCCc2c3sc(C(F)(F)F)c2CO)cn1 [Compound 909] | < 100 nM |
| C[C@H]1C[C@@]2(CCN1Cc1cnn(CC3(C)COC3)c1)OCCc1c2sc(C(F)(F)F)c1CO [Compound 910] | 100 to 500 nM |
| C[C@H]1C[C@@]2(CCN1Cc1cnn(C3CCS(=O)(=O)C3)c1)OCCc1c2sc(C(F)(F)F)c1CO (stereo partly drawn) [Compound 911, [(2′S, 7R)-1′-[[1-(1,1-dioxothiolan-3-yl)pyrazol-4-yl]methyl]-2′-methyl-2-(trifluoromethyl)spiro[4,5-dihydrothieno[2,3-c]pyran-7,4′-piperidine]-3-yl]methanol] | < 100 nM |
| Cc1cnc(Cn2cc(CN3CC[C@]4(C[C@@H]3C)OCCc3c4sc(C(F)(F)F)c3CO)cn2)cn1 [Compound 912] | < 100 nM |
| C[C@H]1C[C@@]2(CCN1Cc1cnn(CC(=O)NCC(F)F)c1)OCCc1c2sc(C(F)(F)F)c1CO [Compound 913] | < 100 nM |
| C[C@H]1C[C@@]2(CCN1Cc1cnn(Cc3nnnn3C)c1)OCCc1c2sc(C(F)(F)F)c1CO [Compound 914] | < 100 nM |

| SMILES | IC50 |
| --- | --- |
| C[C@H]1C[C@@]2(CCN1Cc1cnn(CC3(CO)COC3)c1)OCCc1c2sc(C(F)(F)F)c1CO [Compound 915] | < 100 nM |
| CNS(=O)(=O)CCn1cc(CN2CC[C@]3(C[C@@H]2C)OCCc2c3sc(C(F)(F)F)c2CO)cn1 [Compound 916] | < 100 nM |
| C[C@H]1C[C@@]2(CCN1Cc1cnn(CC3CCNC(=O)C3)c1)OCCc1c2sc(C(F)(F)F)c1CO (stereo partly shown) [Compound 917] | < 100 nM |
| C[C@H]1C[C@@]2(CCN1Cc1cnn(C[C@H](O)CC#N)c1)OCCc1c2sc(C(F)(F)F)c1CO [Compound 918] | < 100 nM |
| C[C@H]1C[C@@]2(CCN1Cc1cnn(Cc3nnco3)c1)OCCc1c2sc(C(F)(F)F)c1CO [Compound 919] | < 100 nM |
| C[C@H]1C[C@@]2(CCN1Cc1cnn(Cc3nnc[nH]3)c1)OCCc1c2sc(C(F)(F)F)c1CO [Compound 920] | 100 to 500 nM |
| C[C@H]1C[C@@]2(CCN1Cc1cnn(CC3CNC(=O)C3)c1)OCCc1c2sc(C(F)(F)F)c1CO (stereo partly shown) [Compound 921] | < 100 nM |
| C[C@H]1C[C@@]2(CCN1Cc1cnn(C[C@@H]3CCC(=O)N3)c1)OCCc1c2sc(C(F)(F)F)c1CO [Compound 922] | < 100 nM |
| Cc1nnc(Cn2cc(CN3CC[C@]4(C[C@@H]3C)OCCc3c4sc(C(F)(F)F)c3CO)cn2)o1 [Compound 923] | < 100 nM |
| C[C@H]1C[C@@]2(CCN1Cc1cnn(CS(=O)(=O)N(C)C)c1)OCCc1c2sc(C(F)(F)F)c1CO [Compound 924] | < 100 nM |
| CC(c1nnc[nH]1)n1cc(CN2CC[C@]3(C[C@@H]2C)OCCc2c3sc(C(F)(F)F)c2CO)cn1 (stereo partly shown) [Compound 925] | 100 to 500 nM |
| C[C@H]1C[C@@]2(CCN1Cc1cnn(CCC(N)=O)c1)OC[C@@H](O)c1cc(C(F)(F)F)sc12 [Compound 926] | < 100 nM |
| C[C@H]1C[C@@]2(CCN1Cc1cnn(CCCC(N)=O)c1)OC[C@@H](O)c1cc(C(F)(F)F)sc12 [Compound 927] | < 100 nM |
| C[C@H]1C[C@@]2(CCN1Cc1cnn(CC(=O)NC3CC3)c1)OC[C@@H](O)c1cc(C(F)(F)F)sc12 [Compound 928] | < 100 nM |
| C=C(CO)n1cc(CN2CC[C@]3(C[C@@H]2C)OCCc2c3sc(C(F)(F)F)c2CO)cn1 [Compound 929, 2-[4-[[(2′S,7R)-3-(hydroxymethyl)-2′-methyl-2-(trifluoromethyl)spiro[4,5-dihydrothieno[2,3-c]pyran-7,4′-piperidine]-1′-yl]methyl]pyrazol-1-yl]prop-2-en-1-ol] | < 100 nM |
| C[C@H]1C[C@@]2(CCN1Cc1cnn(CC(O)C3(O)CCOCC3)c1)OCCc1c2sc(C(F)(F)F)c1CO (stereo partly drawn) [Compound 930, 4-[1-hydroxy-2-[4-[[(2′S, 7R)-3-(hydroxymethyl)-2′-methyl-2-(trifluoromethyl)spiro[4,5-dihydro-thieno[2,3-c]pyran-7,4′-piperidine]-1′-yl]methyl]pyrazol-1-yl]ethyl]tetrahydropyran-4-ol] | < 100 nM |
| CC(O)Cn1cc(CN2CC[C@]3(C[C@@H]2C)OCCc2c3sc(C(F)(F)F)c2CO)cn1 (stereo partly shown) [Compound 931] | < 100 nM |
| C[C@H]1C[C@@]2(CCN1Cc1cnn(CC(O)C(N)=O)c1)OCCc1c2sc(C(F)(F)F)c1CO (stereo partly shown) [Compound 932] | < 100 nM |
| C[C@H]1C[C@@]2(CCN1Cc1cnn(CC(O)C3(O)COC3)c1)OCCc1c2sc(C(F)(F)F)c1CO (stereo partly shown) [Compound 933] | < 100 nM |
| C[C@H]1C[C@@]2(CCN1Cc1cnn(CC(O)CO)c1)OCCc1c2sc(C(F)(F)F)c1CO (stereo partly shown) [Compound 934] | < 100 nM |
| C[C@H]1C[C@@]2(CCN1Cc1cnn(CC(O)C3(CO)CCC3)c1)OCCc1c2sc(C(F)(F)F)c1CO (stereo partly shown) [Compound 935] | < 100 nM |
| C[C@H]1C[C@@]2(CCN1Cc1cnn(CC(C)(O)CO)c1)OCCc1c2sc(C(F)(F)F)c1CO (stereo partly shown) [Compound 936] | < 100 nM |
| C[C@H]1C[C@@]2(CCN1Cc1cnn(CC(O)c3ccc(F)cn3)c1)OCCc1c2sc(C(F)(F)F)c1CO (stereo partly shown) [Compound 937] | < 100 nM |
| C[C@H]1C[C@@]2(CCN1Cc1cnn(CC(O)CC(C)(O)C3CC3)c1)OCCc1c2sc(C(F)(F)F)c1CO (stereo partly shown) [Compound 938] | < 100 nM |
| C[C@H]1C[C@@]2(CCN1Cc1cnn(CC(O)c3ccccn3)c1)OCCc1c2sc(C(F)(F)F)c1CO (stereo partly shown) [Compound 939] | < 100 nM |
| C[C@H]1C[C@@]2(CCN1Cc1cnn(CC(O)C3(O)CCC3)c1)OCCc1c2sc(C(F)(F)F)c1CO (stereo partly shown) [Compound 940] | < 100 nM |
